# From article PMC6934184, “Selective DNA-PKcs inhibition extends the therapeutic index of localized radiotherapy and chemotherapy” (The Journal of Clinical Investigation, 2019)
# Biological target: T1, MST1R (RON) (Homo sapiens, UniProt Q04912)
# T1 construct: purchased Thermo Fisher Scientific (Life Technologies) SelectScreen
# Assay: SelectScreen Z'LYTE
# Format: biochemical
# Outline: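 Percent values come from Thermo SelectScreen profiling of NU5455, combining activity and binding assays. CSF1R was run in Z'LYTE format at Km app ATP, and CAMK1 in Adapta format with ATP listed at 10.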
# T1 sequence (Q04912 25-1400): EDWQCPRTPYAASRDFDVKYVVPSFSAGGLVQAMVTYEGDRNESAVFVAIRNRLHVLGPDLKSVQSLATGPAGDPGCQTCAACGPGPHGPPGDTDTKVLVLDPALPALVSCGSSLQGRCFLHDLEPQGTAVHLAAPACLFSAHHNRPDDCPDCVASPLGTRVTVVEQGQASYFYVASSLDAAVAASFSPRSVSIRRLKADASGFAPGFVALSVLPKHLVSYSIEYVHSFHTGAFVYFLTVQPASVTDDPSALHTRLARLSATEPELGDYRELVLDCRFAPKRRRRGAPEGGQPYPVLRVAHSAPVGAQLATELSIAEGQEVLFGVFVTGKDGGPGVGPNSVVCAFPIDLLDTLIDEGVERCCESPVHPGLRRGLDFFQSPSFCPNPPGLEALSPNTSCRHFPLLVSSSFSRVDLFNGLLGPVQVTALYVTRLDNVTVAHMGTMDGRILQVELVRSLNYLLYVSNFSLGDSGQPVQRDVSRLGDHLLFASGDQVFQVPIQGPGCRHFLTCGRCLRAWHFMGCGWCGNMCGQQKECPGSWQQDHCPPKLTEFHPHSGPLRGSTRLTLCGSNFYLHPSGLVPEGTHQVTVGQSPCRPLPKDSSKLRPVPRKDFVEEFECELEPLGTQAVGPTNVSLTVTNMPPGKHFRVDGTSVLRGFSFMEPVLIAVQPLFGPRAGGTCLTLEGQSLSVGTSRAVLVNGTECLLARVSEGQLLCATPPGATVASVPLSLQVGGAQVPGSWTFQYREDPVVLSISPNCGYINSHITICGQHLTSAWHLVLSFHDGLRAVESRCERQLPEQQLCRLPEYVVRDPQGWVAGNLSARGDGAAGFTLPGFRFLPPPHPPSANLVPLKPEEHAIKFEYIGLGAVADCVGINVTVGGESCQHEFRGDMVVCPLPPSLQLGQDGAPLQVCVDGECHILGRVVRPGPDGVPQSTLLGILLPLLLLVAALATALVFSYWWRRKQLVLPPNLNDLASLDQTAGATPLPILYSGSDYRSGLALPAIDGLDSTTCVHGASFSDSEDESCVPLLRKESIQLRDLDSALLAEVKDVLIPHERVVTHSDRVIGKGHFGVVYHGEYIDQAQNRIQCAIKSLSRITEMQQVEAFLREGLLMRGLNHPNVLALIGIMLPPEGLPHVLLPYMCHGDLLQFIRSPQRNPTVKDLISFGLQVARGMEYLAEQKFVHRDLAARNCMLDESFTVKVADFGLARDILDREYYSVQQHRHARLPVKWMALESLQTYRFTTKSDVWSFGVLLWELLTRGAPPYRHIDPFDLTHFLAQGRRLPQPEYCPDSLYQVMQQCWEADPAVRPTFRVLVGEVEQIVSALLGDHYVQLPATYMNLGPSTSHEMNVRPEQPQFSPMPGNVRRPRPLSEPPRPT
smiles,measurement,value
CN(C(=O)CN1CCOCC1)c1ccc2sc3c(-c4cccc5c(=O)cc(N6CC7CCC(C6)O7)oc45)cccc3c2c1 [NU5455],inhibition at 1 µM,-13.4%
